Source: patent publication US20150274932A1, “USE OF BIOCIDES AS FLAME RETARDANTS” (BAYER CROPSCIENCE AG, priority 2012, published 2015)

Assay: ASTM D 1929 ignition temperature test, polypropylene beads with and without Deltamethrin
Format: physicochemical
Conditions: polypropylene beads with 11 wt % Deltamethrin and 2 wt % Bumetrizole vs pure polypropylene beads; air velocity 25 mm/s; FIG. 1
Excerpt: ASTM D 1929: Standard Test Method for Determining Ignition Temperature of Plastics
The objective of this method is to determine at which temperature plastic material (sheet or granules) release flammable gases and vapors to such an extent, that an explosive mixture with air can be formed, that can be ignited with a pilot flame.
This “flash-point” of plastics is an important safety characteristic, which can be used to assess explosion and fire risk in plant where plastic material is processed, handled or stored. The objective of this method is to determine the temperature at which gases and vapors released from plastic sheets or granules spontaneously catch fire, i.e. without contact to an external ignition source. The Self-Ignition Temperature is relevant for the assessment of ignition risks due to hot surfaces in plant where plastic material is processed, e.g. in extruders. The tests are carried out by exposing the test item (sample) in an oven to a controlled stream of hot, fresh air. Ignition is detected by monitoring the temperature of the sample. For flash ignition, a pilot flame above the exhaust of the oven is used. For self-ignition test, no external ignition source is applied. The test are carried out in isothermal mode, i.e. at constant temperature. Several trials, at different temperatures are necessary to find the lowest temperature, at which ignition does occur. […]

SMILES: CC1(C)[C@H](C(=O)O[C@H](C#N)c2cccc(Oc3ccccc3)c2)[C@@H]1C=C(Br)Br [Deltamethrin]
- flash ignition temperature: higher flash ignition temperature
- spontaneous ignition temperature: higher spontaneous ignition temperature
